Measurements as given in ChEMBL document CHEMBL4811250, “Discovery and Optimization of 2H-1λ2-Pyridin-2-one Inhibitors of Mutant Isocitrate Dehydrogenase 1 for the Treatment of Cancer” (J Med Chem, 2021).
pIC50: −log10 of the molar value.

Assays:
[1] = molecular target: Isocitrate dehydrogenase [NADP] cytoplasmic (Homo sapiens, UniProt O75874, R132H); assay: Inhibition of IDH1 R132H mutant (unknown origin) assessed as reduction in NADPH consumption using alpha-KG as substrate incubated for 5 mins by diaphorase/resazurin-coupled system
Chain of Isocitrate dehydrogenase [NADP] cytoplasmic (Homo sapiens, UniProt O75874, R132H) (O75874 2-414 R132H limits assumed): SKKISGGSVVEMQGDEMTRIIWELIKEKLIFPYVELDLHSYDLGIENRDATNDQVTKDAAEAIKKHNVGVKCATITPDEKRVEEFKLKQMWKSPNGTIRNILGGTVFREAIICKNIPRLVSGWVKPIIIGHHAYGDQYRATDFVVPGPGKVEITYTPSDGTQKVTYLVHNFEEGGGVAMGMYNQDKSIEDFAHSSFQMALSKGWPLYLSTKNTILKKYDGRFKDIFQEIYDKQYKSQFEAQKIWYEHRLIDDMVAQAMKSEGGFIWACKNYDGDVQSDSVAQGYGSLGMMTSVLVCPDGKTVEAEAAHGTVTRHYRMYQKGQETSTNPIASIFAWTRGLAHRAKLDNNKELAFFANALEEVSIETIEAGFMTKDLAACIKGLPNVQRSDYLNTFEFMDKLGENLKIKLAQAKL

[2] = test system: Isocitrate dehydrogenase [NADP] cytoplasmic (Homo sapiens), O75874 [R132H]; assay: Inhibition of IDH1 R132H mutant (unknown origin) assessed as reduction in NADPH consumption using alpha-KG as substrate at 38 uM incubated for 5 mins by diaphorase/resazurin-coupled system relative to control
Chain of Isocitrate dehydrogenase [NADP] cytoplasmic (Homo sapiens), O75874 [R132H] (O75874 whole entry R132H): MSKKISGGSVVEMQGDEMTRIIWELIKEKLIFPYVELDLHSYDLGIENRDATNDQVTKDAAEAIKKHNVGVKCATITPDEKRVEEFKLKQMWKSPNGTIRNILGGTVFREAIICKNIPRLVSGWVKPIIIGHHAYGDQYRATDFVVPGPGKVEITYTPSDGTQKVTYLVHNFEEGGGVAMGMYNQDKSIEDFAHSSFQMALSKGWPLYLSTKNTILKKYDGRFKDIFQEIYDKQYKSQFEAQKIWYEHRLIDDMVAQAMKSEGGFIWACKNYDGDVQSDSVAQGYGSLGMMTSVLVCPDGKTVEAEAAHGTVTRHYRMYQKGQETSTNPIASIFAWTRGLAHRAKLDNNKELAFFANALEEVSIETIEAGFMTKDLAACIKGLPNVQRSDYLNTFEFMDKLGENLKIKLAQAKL

[3] = molecular target: Isocitrate dehydrogenase [NADP] cytoplasmic (Homo sapiens, UniProt O75874, R132C); assay: Inhibition of IDH1 R132C mutant (unknown origin) assessed as reduction in NADPH consumption using alpha-KG as substrate incubated for 5 mins by diaphorase/resazurin-coupled system
Chain of Isocitrate dehydrogenase [NADP] cytoplasmic (Homo sapiens, UniProt O75874, R132C) (O75874 2-414 R132C limits assumed): as the sequence (O75874 2-414 R132H limits assumed) above, with H131C counted along it

[4] = test system: Isocitrate dehydrogenase [NADP] cytoplasmic (Homo sapiens), O75874 [R132C]; assay: Inhibition of IDH1 R132C mutant (unknown origin) assessed as reduction in NADPH consumption using alpha-KG as substrate at 38 uM incubated for 5 mins by diaphorase/resazurin-coupled system relative to control
Chain of Isocitrate dehydrogenase [NADP] cytoplasmic (Homo sapiens), O75874 [R132C] (O75874 whole entry R132C): as the sequence (O75874 whole entry R132H) above, with H132C counted along it

Compound	pIC50 [1]	inhibition [2]	pIC50 [3]	inhibition [4]
CCc1cccc(CC)c1-n1c(C)c(C(=O)NCCN)cc(-c2nc(-c3ccc(Cl)cc3)cs2)c1=O	6.42	97%	5.70	89%
CCc1cccc(CC)c1-n1c(C)c(C(=O)NCC(=O)O)cc(-c2nc(-c3ccc(Cl)cc3)cs2)c1=O	5.92	106%	4.96	87%
COc1ccc(OC)c(-n2c3c(cc(-n4cc(-c5ccccc5)cn4)c2=O)C(=O)CC(C)(C)C3)c1		31%	< 4.42	
CC1(C)CC(=O)c2cc(-c3nc(-c4ccc(Cl)cc4)cs3)c(=O)n(-c3ccccc3C(=O)O)c2C1	5.34	96%	4.96	105%
COc1ccncc1-n1c2c(cc(-c3nc(-c4ccc(Cl)cc4)cs3)c1=O)C(=O)CC(C)(C)C2	< 4.42		< 4.42	
COc1ccc(OC)c(-n2c3c(cc(-c4nc5ccc(Cl)cc5s4)c2=O)C(=O)CC(C)(C)C3)c1		50%	5.60	94%
CC(C)=Cc1c(C(=O)N2CCNCC2)cc(-c2nc(-c3ccc(Cl)cc3)cs2)c(=O)n1-c1ccccc1	6.48		5.49	
CCOC(=O)c1cc(-c2nc(-c3ccc(Cl)cc3)cs2)c(=O)n(-c2c(CC)cccc2CC)c1-c1ccccc1	< 4.42		< 4.42	
CCc1cccc(CC)c1-n1c(C)c(C(=O)N2CCOCC2)cc(-c2nc(-c3ccc(Cl)cc3)cs2)c1=O	5.38	82%	5.39	71%
COc1ccc(OC)c(-n2c3c(cc(-c4cccc(-c5ccc(Cl)cc5)c4)c2=O)C(=O)CC(C)(C)C3)c1	< 4.42		< 4.42	
CCc1cccc(CC)c1-n1c(C)c(C(=O)NCC(N)=O)cc(-c2nc(-c3ccc(Cl)cc3)cs2)c1=O	5.80	105%	5.42	77%
CCc1cccc(CC)c1-n1c(C)c(C(=O)OC)cc(-c2nc(-c3ccc(Cl)cc3)cs2)c1=O	< 4.42		< 4.42	
CCc1cccc(CC)c1-n1c(C)c(C(=O)N(C)C)cc(-c2nc(-c3ccc(Cl)cc3)cs2)c1=O	5.92	98%	5.70	86%
COc1ccc(OC)c(-n2c3c(cc(-c4cn(-c5ccc(Cl)cc5)cn4)c2=O)C(=O)CC(C)(C)C3)c1		41%	< 4.42	
COc1ccc(-n2c3c(cc(-c4nc(-c5ccc(Cl)cc5)cs4)c2=O)C(=O)CC(C)(C)C3)c(OC)c1	< 4.42		< 4.42	
COc1ccc(OC)c(-n2c3c(cc(-c4nc(-c5ccc(Cl)cc5)cs4)c2=O)C=CC(C)(C)C3)c1	5.52	96%	5.77	76%
CCc1cccc(C)c1-n1c(C=C(C)C)c(C(=O)N2CCNCC2)cc(-c2nc(-c3ccc(Cl)cc3)cs2)c1=O	6.57		5.66	
COc1ccc(OC)c(-n2c3c(cc(C(=O)NCc4ccc(Cl)cc4)c2=O)C(=O)CC(C)(C)C3)c1		35%	< 4.42	
COc1ccc(OC)c(-n2c3c(cc(-c4ncc(-c5ccc(Cl)cc5)s4)c2=O)C(=O)CC(C)(C)C3)c1	< 4.42		< 4.42	
COc1ccc(OC)c(-n2c3c(cc(-c4nc5cc(Cl)ccc5s4)c2=O)C(=O)CC(C)(C)C3)c1	< 4.42		< 4.42	
CC1(C)CC(=O)c2cc(-c3nc(-c4ccc(Cl)cc4)cs3)c(=O)n(C3CCCCC3)c2C1	< 4.42		< 4.42	
COc1ccc(OC)c(-n2cccc(-c3nc(-c4ccc(Cl)cc4)cs3)c2=O)c1	< 4.42		< 4.42	

These reach a higher pIC50 [3]. Values come first.

pIC50 [1]	inhibition [2]	pIC50 [3]	inhibition [4]	Compound
6.00	104%	6.04	95%	CCc1cccc(CC)c1-n1c(C)c(C(=O)NCCCNC)cc(-c2nc(-c3ccc(Cl)cc3)cs2)c1=O
6.00	97%	5.89	80%	COc1ncccc1-n1c2c(cc(-c3nc(-c4ccc(Cl)cc4)cs3)c1=O)C(=O)CC(C)(C)C2
5.96	80%	6.33	77%	CC(C)Oc1ccccc1-n1c2c(cc(-c3nc(-c4ccc(Cl)cc4)cs3)c1=O)C(=O)CC(C)(C)C2
6.80	85%	7.19	75%	CCOc1ccc(OCC)c(-n2c3c(cc(-c4nc(-c5ccc(Cl)cc5)cs4)c2=O)C(=O)CC(C)(C)C3)c1
6.68	103%	5.82	93%	CCc1cccc(CC)c1-n1c(C)c(C(=O)N2CCNCC2)cc(-c2nc(-c3ccc(Cl)cc3)cs2)c1=O
6.16	89%	6.62	82%	CCc1cccc(CC)c1-n1c2c(cc(-c3nc(-c4ccc(Cl)cc4)cs3)c1=O)C(=O)CC(C)(C)C2
6.33	94%	6.33	83%	COC(=O)c1ccsc1-n1c2c(cc(-c3nc(-c4ccc(Cl)cc4)cs3)c1=O)C(=O)CC(C)(C)C2
7.36		7.26		CCc1cccc(Cl)c1-n1c(C=C(C)C)c(C(=O)N2CCNCC2)cc(-c2nc(-c3ccc(Cl)cc3)cs2)c1=O
7.31		7.22		CCc1cccc(CC)c1-n1c(C=C(C)C)c(C(=O)N2CCNC(CO)C2)cc(-c2nc(-c3ccc(Cl)cc3)cs2)c1=O (centres undefined)
5.96	93%	6.01	79%	CCc1cccc(CC)c1-n1c(CC2CCOCC2)c(C(=O)N2CCNCC2)cc(-c2nc(-c3ccc(Cl)cc3)cs2)c1=O
6.06	101%	6.49	96%	CCc1cccc(CC)c1-n1c(C)c(C(=O)NCCNC)cc(-c2nc(-c3ccc(Cl)cc3)cs2)c1=O
7.12	105%	6.89	91%	CCc1cccc(CC)c1-n1c(CC2CCOC2)c(C(=O)N2CCNCC2)cc(-c2nc(-c3ccc(Cl)cc3)cs2)c1=O (centres undefined)
	88%	6.39	81%	CCOc1ccccc1-n1c2c(cc(-c3nc(-c4ccc(Cl)cc4)cs3)c1=O)C(=O)CC(C)(C)C2
6.89		7.09		CCCC1CN(C(=O)c2cc(-c3nc(-c4ccc(Cl)cc4)cs3)c(=O)n(-c3c(CC)cccc3CC)c2C=C(C)C)CCN1 (centres undefined)
6.62	101%	6.22	82%	CCc1cccc(CC)c1-n1c(CCC(F)(F)F)c(C(=O)N2CCNCC2)cc(-c2nc(-c3ccc(Cl)cc3)cs2)c1=O
5.80	84%	6.00	85%	COc1ccc(OC)c(-n2c3c(cc(-c4nc(-c5ccc(Cl)cc5)cs4)c2=O)C(=O)CC(C)(C)C3)c1
6.38	102%	6.41	92%	CCc1cccc(CC)c1-n1c(C(C)C)c(C(=O)N2CCNCC2)cc(-c2nc(-c3ccc(Cl)cc3)cs2)c1=O
6.62		7.19		CCc1cccc(CC)c1-n1c(C=C(C)C)c(C(=O)N2CC3(CNC3)C2)cc(-c2nc(-c3ccc(Cl)cc3)cs2)c1=O
6.44		6.89		CCc1cccc(CC)c1-n1c(C=C(C)C)c(C(=O)N2CCNC(C(F)(F)F)C2)cc(-c2nc(-c3ccc(Cl)cc3)cs2)c1=O (centres undefined)
5.54	88%	5.92	86%	CCc1cccc(CC)c1-n1c(C)c(C(=O)N2CCN(C)CC2)cc(-c2nc(-c3ccc(Cl)cc3)cs2)c1=O
7.00		7.14		CCc1cccc(CC)c1-n1c(C=C(C)C)c(C(=O)N2CCNC(CC)C2)cc(-c2nc(-c3ccc(Cl)cc3)cs2)c1=O (centres undefined)
< 4.42		6.09	56%	CCc1cccc(CC)c1-n1c(C)c(C(=O)NCC(C)C)cc(-c2nc(-c3ccc(Cl)cc3)cs2)c1=O
7.36		6.96		CCc1ccc(C)cc1-n1c(C=C(C)C)c(C(=O)N2CCNCC2)cc(-c2nc(-c3ccc(Cl)cc3)cs2)c1=O
7.25		6.80		CCc1ccccc1-n1c(C=C(C)C)c(C(=O)N2CCNCC2)cc(-c2nc(-c3ccc(Cl)cc3)cs2)c1=O
6.41	76%	6.80	86%	CCOc1cccc(OCC)c1-n1c2c(cc(-c3nc(-c4ccc(Cl)cc4)cs3)c1=O)C(=O)CC(C)(C)C2
5.62	87%	5.80	75%	COc1cccc(OC)c1-n1c2c(cc(-c3nc(-c4ccc(Cl)cc4)cs3)c1=O)C(=O)CC(C)(C)C2
6.10	89%	6.30	86%	CCc1cccc(C)c1-n1c2c(cc(-c3nc(-c4ccc(Cl)cc4)cs3)c1=O)C(=O)CC(C)(C)C2
5.70	91%	6.06	83%	CCc1ccccc1-n1c2c(cc(-c3nc(-c4ccc(Cl)cc4)cs3)c1=O)C(=O)CC(C)(C)C2
6.85	102%	6.47	92%	CCc1cccc(CC)c1-n1c(CCOC)c(C(=O)N2CCNCC2)cc(-c2nc(-c3ccc(Cl)cc3)cs2)c1=O
7.03		7.38		CCc1cccc(CC)c1-n1c(C=C(C)C)c(C(=O)N2CCNC(C(N)=O)C2)cc(-c2nc(-c3ccc(Cl)cc3)cs2)c1=O (centres undefined)
